Our source for the RP-LC retention time values is the METLIN SMRT retention time set (Domingo-Almenara et al. 2019).

The nature of the data set: gradient 5% acetonitrile 3 min, to 50% in 2 min, to 85% in 15 min, held 3 min, 100 µL/min. To be noted: column: Zorbax Extend-C18 2.1 x 50 mm; eluents: water / acetonitrile, 0.1% formic acid. An outline of the steps:
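Pure standards were run in mixtures of ~100 molecules by HPLC coupled to a quadrupole time-of-flight mass spectrometer. The column was a Zorbax Extend-C18 (2.1 × 50 mm, 1.8 μm) at 100 μL/min, with water and acetonitrile each containing 0.1% formic acid, in positive and negative ionization mode. Dead and dwell volumes were 40 μL and 900 μL. Retention time was taken from computationally picked adduct peaks, each manually inspected, with data collected over 3 months.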
Regarding `CCCN(CCC)C(=O)C1CCCN(c2ccc(-c3ccc(C)cc3)nn2)C1` (stereo not given), the RP-LC retention time is 826 s.

As for `C=CCc1ccc(OCC(O)CN2C(C)CCCC2C)c(OC)c1` (stereo not given), the RP-LC retention time is 603 s.

Regarding `O=C(Cn1c(=O)c(=O)n(Cc2ccccc2)c2ncccc21)NCc1ccco1`, the RP-LC retention time stood at 786 s.

Consider `O=C(c1ccccc1)N1CCc2ccc(NS(=O)(=O)c3cccs3)cc2C1`, for which the RP-LC retention time stood at 759 s.

Regarding `Cc1cc(N2CCN(C)CC2)n2nc(CN3CCN(c4ccc(Cl)cc4)CC3)nc2n1`, the RP-LC retention time turned out to be 572 s.

For the compound `Cc1cccc(N2C(=O)CN(Cc3ccco3)[C@H]3CS(=O)(=O)C[C@H]32)c1`, the RP-LC retention time stood at 744 s.

`Cc1cc(C)cc(Nc2c(C(=O)N3CCC(C)CC3)cnc3nc(C)ccc23)c1` gave an RP-LC retention time of 693 s.

`Cc1cccc(C)c1Nc1c(-c2ccc(N3CCOCC3)cc2)nc2cnccn12` gave an RP-LC retention time of 755 s.

The compound `CCc1cc(C(=O)N2CCN(c3ccccc3)CC2)nc2ccnn12` displayed an RP-LC retention time of 814 s.

In turn, `O=C(NC1CC1)c1ccc(OCC2CCCN(C(=O)c3ccc(F)cc3F)C2)cc1` (stereo not given) had an RP-LC retention time of 848 s.

`O=C1[C@H]2CNC[C@H]2C(=O)N1CCc1ccccc1` gave an RP-LC retention time of 604 s.

In turn, `COc1ccc(CNC(=O)CN2CCN(Cc3ccc(C)cc3)C(=O)C2=O)cc1` came in with an RP-LC retention time of 734 s.

`CNC(=O)c1c(NC(=O)c2cccc(OC)c2)sc2c1CCC2` showed an RP-LC retention time of 1050 s.

Consider `CCN1C(=O)C2(CCN(S(=O)(=O)c3cn(C)cn3)CC2)c2ccccc21`, for which the RP-LC retention time was determined as 724 s.

Compound `O=C(C1COc2ccccc2O1)N1CCOc2ccc(N3CCCC3)cc2C1` (stereo not given) had an RP-LC retention time of 794 s.

`O=C(CCC1CCCN(C(=O)Nc2ccc(Cl)cc2)C1)NCc1ccccc1` (stereo not given) gave an RP-LC retention time of 884 s.

For `CC1CCN(c2cc(-c3noc(C(=O)N4CCc5ccccc5C4)n3)ccn2)CC1`, the RP-LC retention time amounted to 1010 s.

`O=C(COc1ccc(-c2nnc3n2CCCC3)cc1)Nc1ccc(Cl)cc1` had an RP-LC retention time of 757 s.

Turning to `COc1ccc(S(=O)(=O)C(CNC(=O)c2cccc([N+](=O)[O-])c2C)c2ccco2)cc1` (stereo not given), the RP-LC retention time was 664 s.

Turning to `O=C(CCc1c(-c2ccccc2)nc2ccccn12)Nc1ccccc1C(F)(F)F`, the RP-LC retention time amounted to 691 s.

In turn, `Cc1oc(-c2[nH]ncc2C(=O)N(C)C)cc1S(=O)(=O)NC1CCCC1` gave an RP-LC retention time of 650 s.

For the compound `COc1ccc(-c2c(C)nn3c(C)c(C(=O)OC(C)C)nnc23)cc1`, the RP-LC retention time was determined as 1010 s.

`CCCCN(CC)c1nc2cc(C(=O)OC)ccc2c(=O)n1-c1ccccc1` yielded an RP-LC retention time of 1250 s.

The compound `CCCn1c(=O)sc2cc(S(=O)(=O)N3CCC(C(=O)N(CC)CC)CC3)ccc21` came in with an RP-LC retention time of 881 s.

Compound `CN(C(=O)C1CCCN(c2ncnc3c2nc2n3CCCCC2)C1)c1cccc(Cl)c1` (stereo not given) came in with an RP-LC retention time of 851 s.

`O=C(NCc1csc(-c2ccccc2)n1)C1CCN(C(=O)Nc2ccccc2)CC1` gave an RP-LC retention time of 766 s.

`O=C(Nc1ccc(F)cc1)C1CC(=O)N(CCc2c[nH]c3ccc(F)cc23)C1` (stereo not given) displayed an RP-LC retention time of 785 s.

Compound `Cc1cccc(C)c1NC(=O)C(C)n1cnc2nc3c(cc2c1=O)CCCC3` (stereo not given) had an RP-LC retention time of 756 s.

In the case of `COCC(=O)N(CC(=O)N1CCc2sccc2C1COc1ccc(Cl)cc1)C(C)(C)C` (stereo not given), the RP-LC retention time is 991 s.

Consider `Cc1cc(=O)n(CC(=O)Nc2ccc3c(c2)OCCO3)c(N2CCCCC2)n1`, for which the RP-LC retention time is 645 s.

For the compound `Cc1cccc(OCCCn2c(CO)nc3ccccc32)c1`, the RP-LC retention time was 678 s.

The compound `O=S(=O)(c1ccc(Cl)cc1)N1CCC2(CC1)NCCN=C2NCc1ccc(F)cc1` came in with an RP-LC retention time of 744 s.

In turn, `COCCNC(=O)N1CCCn2nc(-c3ccc(OC)cc3)cc2C1` gave an RP-LC retention time of 660 s.

Compound `CCc1noc(-c2ccnc(-n3cnc(C(=O)NC4CCCC4)c3)c2)n1` had an RP-LC retention time of 839 s.

Consider `COc1ccc(C(=O)N2CCCN(c3nnc4ccc(Cl)cn34)CC2)cn1`, for which the RP-LC retention time was determined as 579 s.

On to `Cc1ccc2nc(C(=O)N3CCN(c4ccc(Cl)cc4)CC3)cn2c1`, for which the RP-LC retention time is 738 s.

`COc1cc(=O)c(C(N)=O)nn1-c1ccc(F)cc1` returned an RP-LC retention time of 579 s.

`Cc1cc(N2CCCC2)nc(N2CCN(C(=O)C3CCCC3)CC2)n1` had an RP-LC retention time of 670 s.

The compound `Cc1ccc(-c2nc(NC(=O)c3cc(C)on3)sc2C)c(C)c1` returned an RP-LC retention time of 1120 s.

`CCc1cc(C(=O)Nc2ccccc2F)nc2ccnn12`: the RP-LC retention time was found to be 1060 s.

On to `CCC(=O)N1CCc2cc(N3CC(C(=O)NCC(C)C)CC3=O)ccc21` (stereo not given), for which the RP-LC retention time worked out at 687 s.

In turn, `O=C(NCc1ccc2c(c1)OCO2)C(=O)NCC1(CO)CC1` gave an RP-LC retention time of 627 s.

In the case of `CCc1nc2c(c(=O)n1CC(=O)NCCCc1ccccc1)CN(Cc1ccccc1)CC2`, the RP-LC retention time was 1050 s.

As for `CC1=C(C(=O)Nc2ccc(F)cc2C)C2(CCCCCC2)OC1=O`, the RP-LC retention time is 972 s.

`CCOCC(=O)N1CCC(Oc2nccnc2N(C)C)C1` (stereo not given) returned an RP-LC retention time of 616 s.

For `Fc1ccccc1CSc1ccc2nnc(-c3cccnc3)n2n1`, the RP-LC retention time stood at 680 s.

Turning to `c1cc(-c2noc(-c3ccoc3)n2)cc(N2CCCC2)n1`, the RP-LC retention time was 640 s.

`CC1=C(c2ccccc2)S(=O)(=O)N=C1N1CCCN(C(=O)NCc2ccco2)CC1` returned an RP-LC retention time of 767 s.

`CCCc1nnc(-c2cccnc2N2CCN(C(=O)c3ccoc3)CC2)o1` gave an RP-LC retention time of 728 s.

The compound `Cc1ccc(N2CC(c3nc(-c4ccc5c(c4)nc(C)c(=O)n5C)no3)CC2=O)cc1C` (stereo not given) showed an RP-LC retention time of 876 s.

Compound `Cc1sc2ccn(C)c(=O)c2c1C(=O)N1CCN(c2cccc(Cl)c2)CC1` yielded an RP-LC retention time of 844 s.

Take `Cc1sc(-c2cc(C(F)(F)F)[nH]n2)cc1S(=O)(=O)N1CCN(C2CCCCC2)CC1`: the RP-LC retention time turned out to be 726 s.

As for `COC(=O)c1[nH]c(C)c(C(=O)C(C)N(CC2CCCCC2)C(=O)c2ccc(F)cc2)c1C` (stereo not given), the RP-LC retention time was found to be 1080 s.

`CC1CCN(C(=O)CN2C(=O)C3CCCCN3c3ccc(S(=O)(=O)N4CCCC4)cc32)CC1` (stereo not given): the RP-LC retention time came out at 937 s.

For `COCCN1C(=O)CS(=O)(=O)C12CCN(C(=O)C1(c3ccc(OC)cc3)CC1)CC2`, the RP-LC retention time is 661 s.

The compound `COc1cc2c(cc1OC)C(C(=O)Nc1ccc(F)cc1F)C(c1cccs1)N(C)C2=O` (stereo not given) returned an RP-LC retention time of 827 s.

Turning to `COc1ccccc1/C=C/C(=O)N1CCC(c2cc(N)on2)CC1`, the RP-LC retention time was found to be 720 s.

With `Cc1ccc(S(=O)(=O)N2CCCC(Cn3cnc4cccnc43)C2)cc1F` (stereo not given), the RP-LC retention time amounted to 802 s.

In turn, `O=C(Cn1cccc(-c2nc(-c3ccc(F)cc3)no2)c1=O)NC1CCCCC1` displayed an RP-LC retention time of 834 s.

Compound `COc1ccc(N2CC(c3nc(-c4ccc(C(F)(F)F)cc4)no3)CC2=O)c(OC)c1` (stereo not given) returned an RP-LC retention time of 1030 s.

For the compound `O=C(c1nnn(-c2ccccc2Cl)c1-c1ccncc1)N1CCN(c2ccccn2)CC1`, the RP-LC retention time stood at 973 s.

Regarding `O=C(c1cccs1)N1CCCC(OCc2nc(C3CC3)no2)C1` (stereo not given), the RP-LC retention time worked out at 786 s.

In turn, `Cc1ccn2cc(-c3ccc(NS(=O)(=O)c4cccc(F)c4)cc3)nc2n1` registered an RP-LC retention time of 651 s.

Take `O=C(Nc1nc(-c2ccccc2)cs1)c1c(-c2ccccc2)nc2n1CCS2(=O)=O`: the RP-LC retention time was determined as 1010 s.

Consider `COc1ccc(S(=O)(=O)N2CCc3nc[nH]c3C2)cc1`, for which the RP-LC retention time was 586 s.

`Cc1ccc(CNC(=O)c2ccc3ccnc(N4CCN(c5ccccc5)CC4)c3c2)o1` showed an RP-LC retention time of 819 s.

Take `Cc1ccc(CNC(=O)C2(C)CN(S(C)(=O)=O)CC(=O)N2c2ccc(C)cc2C)cc1` (stereo not given): the RP-LC retention time stood at 864 s.

For the compound `COc1ccc(CN2C=C(C(=O)OCc3noc(-c4cccc(OC)c4)n3)C(C)=NS2(=O)=O)cc1`, the RP-LC retention time was determined as 1120 s.

With `CCOCCCN1C(=O)CN(C2CCCCCC2)C(=O)C1c1ccc(OCC)c(OC)c1` (stereo not given), the RP-LC retention time turned out to be 925 s.

Take `COc1ccccc1CC(=O)Nc1cnc(-c2cccnc2)nc1`: the RP-LC retention time turned out to be 663 s.

`CCC(=O)Nc1ccc(-n2cnc(C(=O)NCC(C)C)c2)nc1` registered an RP-LC retention time of 667 s.

In the case of `O=S(=O)(c1ccc(Cl)cc1)c1ccc(N2CCN(c3ccccn3)CC2)nn1`, the RP-LC retention time worked out at 651 s.

Consider `Cc1nnc(NC(=O)c2cccc(C(F)(F)F)c2)s1`, for which the RP-LC retention time was found to be 749 s.

For `Nc1ncnc(NC2CCCC2)c1[N+](=O)[O-]`, the RP-LC retention time came out at 679 s.

In the case of `COc1ccccc1-c1noc(C2CCCN2C(=O)Nc2cccc(SC)c2)n1` (stereo not given), the RP-LC retention time is 908 s.

Regarding `CN(C)CCCNC(=O)Cn1c(=O)n(-c2ccccc2)c2ncccc21`, the RP-LC retention time stood at 592 s.

The compound `O=c1oc2c(CN3CCCC3)c(O)ccc2c2c1CCC2` came in with an RP-LC retention time of 588 s.

`CC1(C)C(=O)N(CC(=O)Nc2ccc(F)cc2F)c2ccccc21` displayed an RP-LC retention time of 871 s.

`Cc1ccc2c(c1)N(C(=O)Cn1ncn3c(C)c(C(=O)NCc4ccccc4)c(C)c3c1=O)CCO2` had an RP-LC retention time of 886 s.

Consider `COc1cc(C(=O)N2CCN(c3c(C)n(C)c(=O)n(C)c3=O)CC2)cc(OC)c1OC`, for which the RP-LC retention time came to 673 s.
